Data reported in patent publication US10111842B2, “Eutectic solvents and uses thereof” (UNIVERSITY OF OSLO, priority 2014, dated 2018).
Read-outs that look alike come from different tables or passages of the source.

Tests used:
[1] = tested on: Escherichia coli (ATCC 25922); assay: Bacterial studies, blue light 27 J/cm^2 or dark, drop plate CFU (Examples 4-6); assay type: cell-based; conditions: for surviving colony forming units per ml / surviving colony forming units: E. coli
Protocol: (§1) Briefly, the components were mixed and dissolved in warm water (˜50° C.) before evaporation of the solvent at 45° C. for 15 min with a rotatory evaporator. The resulting NADES were transferred to polypropylene tubes with a tight cap. The individual components of each NADES were also prepared as solutions in MilliQ water in a concentration similar to the concentration in the final NADES preparation. All samples were diluted 1:1 with bacterial suspension (OD600 0.03) or 1:50, 1:100 and 1:200 with phosphate buffered saline (PBS, pH 7.4, Lonza, Verviers, Belgium) prior to dilution 1:1 with the bacterial suspension immediately before the bacterial studies.
(§2) The overnight cultures were centrifuged (4000 g, 22° C., 10 min), the medium replaced and diluted with PBS to OD600 0.03. The bacterial suspensions were mixed 1:1 with the samples described in the previous paragraph. A volume of 200 μl from each sample was transferred to the first and seventh well on each row on a 96 well plate (Nunclon sterile 96 well plate with lid, Thermo Fischer Scientific, Waltham, Mass.). Two identical plates were made each time, one for light treatment and one for dark controls. The plates containing E. faecalis or S. aureus samples were incubated for 10 min (37° C.), irradiated with blue light for 10 min (corresponding to 9.5 J/cm^2±10%) and incubated again for 10 min (37° C.). The plates containing E. coli samples were incubated for 30 min (37° C.), irradiated with blue light for 30 min (corresponding to 27 J/cm^2±10%) and incubated again for 30 min (37° C.). The plates containing the dark controls were treated similarly, but covered with aluminium foil during the irradiation period and placed beside the irradiation chamber. […] After treatment, the samples were diluted according to the 6×6 drop plate procedure, modified to 4×4 (each treatment was performed with four parallels). A volume of 15 μl from each dilution was then plated onto TSB agar plates, left to dry for a few minutes and incubated overnight (37° C.). Viable colony forming units (CFU)/ml were calculated by counting the CFUs, multiplying with the dilution factor and dividing by the application volume.
(§3) Briefly, the components of each NADES (see Table 7) were mixed and dissolved in a round flask with 50 ml of warm water (˜50° C.) before evaporation of the solvent at 45° C. for 15 min with a rotatory evaporator. TMAP (Frontier Scientific, Inc., Logan, Utah, USA) was then added to each NADES. […] The final concentration of TMAP was 1 nM. Samples of TMAP were also prepared in purified water (MilliQ) to be 1 nM after dilution 1:200 with PBS (pH 7.4, Lonza, Verviers, Belgium) or with a 6.8 mM citric acid solution (pH ˜4) and bacterial suspension.
(§4) TCPP (Frontier Scientific, Inc., Logan, Utah, USA) was added to each NADES. […] The final TCPP concentrations were 0.5 nM-1 μM. Samples of TCPP were also prepared in ethanol to be 1 nM-1 μM after dilution 1:200 with PBS (pH 7.4, Lonza, Verviers, Belgium) or with a 6.8 mM citric acid solution (pH ˜4) and bacterial suspension.

[2] = tested on: Staphylococcus aureus (strain Newman); assay: Bacterial studies, blue light 9.5 J/cm^2 or dark, drop plate CFU (Examples 4-6); assay type: cell-based; conditions: for toxicity / eradication of S. aureus: dilution 1:1 with bacterial suspension
Protocol: as §1, §2, §3, §4

[3] = tested on: Enterococcus faecalis (ATCC 19433); assay: as above; assay type: cell-based
Protocol: as §1, §2, §3, §4

[4] = tested on: S. epidermidis (ATCC 35984); assay: Phototoxicity studies, blue light 9.5 J/cm^2 or dark (Example 7); assay type: cell-based, Staphylococcus epidermidis
Protocol: as §2
(§5) The concentrations were adjusted give a final concentration of 1-20 nM porphyrin in the bacterial suspension after dilution with PBS (see Table 9). Aqueous solutions of 2.7 M citric acid, 2.3 M xylitol, 2.5 M sucrose, 5 M choline chloride and pure NADES, respectively, were used to investigate the toxicity of the individual compounds and NADES without a photosensitiser. The concentrations of the excipients were the same as in the respective NADES after evaporation of unbound water. The solutions were diluted totally 1:200 (or more) in the bacterial studies.
(§6) The treatments were performed with four parallels.
(§7) Gram-positive bacteria are generally considered to be more susceptible to photodynamic therapy than Gram-negative bacteria. Therefore, S. epidermidis was incubated for 10 min (37° C.), irradiated with blue light for 10 min (9.5 J/cm^2) and incubated again for 10 min while K. pneumoniae and P. aeruginosa were incubated for 30 min (37° C.), irradiated with blue light for 30 min (27 J/cm^2) and incubated again for 30 min.

[5] = tested on: C. albicans (ATCC CRM-10231); assay: Antifungal toxicity studies, blue light 27 J/cm^2 or dark (Example 8); assay type: cell-based, Candida albicans
Protocol: Briefly, the components of each NADES (see Table 13) were mixed and dissolved in a round flask with 50 ml of warm water ( 50° C.) before evaporation of the solvent at 45° C. for 15 min with a rotatory evaporator. The pure […] 35 and NADES 39 were mixed undiluted or after dilution 1:50 with phosphate buffered saline (PBS, Lonza, Verviers, Belgium) with the yeast suspension (1:1) in the toxicity studies. […] The concentrations of the excipients were the same as in the respective NADES after evaporation of unbound water. The solutions were diluted totally 1:1 or 1:100 with PBS and yeast suspension in the toxicity studies. […] The overnight cultures were centrifuged (4000 g, 22° C., 10 min), the medium replaced and diluted with PBS to OD600 0.1.

[6] = tested on: P. aeruginosa (ATCC 9027); assay: Phototoxicity studies, blue light 27 J/cm^2 or dark (Example 7); assay type: cell-based, Pseudomonas aeruginosa; conditions: for % survival (27 J/cm^2) / % survival (dark): ±SD, n = 4; for toxicity to P. aeruginosa: individual components of NADES 35, dilution 1:800
Protocol: as §2, §5, §6, §7

[7] = tested on: K. pneumoniae (ATCC 31844); assay: as above; assay type: cell-based, Klebsiella pneumoniae; conditions: ±SD, n = 4; for % survival (27 J/cm^2): Dilution 1:200, blue light; for % survival (dark): Dilution 1:200, no irradiation
Protocol: as §2, §5, §6, §7

[8] = Polarity (ENR) testing with Nile red; assay type: physicochemical; conditions: Nile red absorption maximum
Protocol: Polarity (ENR) testing of NADES was performed with Nile red (NR) as a solvatochromatic probe. A small amount of NR was added to each deep eutectic solvent. The recorded absorption maximum (λmax) of NR was applied in the formula ENR (kcal/mol^−1)=hcλmaxNA=28591/λmax where h is Planck's constant, c is the velocity of light and NA is Avogadro's number (Ogihara W, et al., Chem Lett 2004; 33: 1414-1415; Saxena R, et al., Chem Phys Lipids 2014; 183: 1-8).

[9] = Dilution 1:200, blue light, ±SD, n = 4
[10] = Dilution 1:200, no irradiation, ±SD, n = 4
[11] = 2.1 M fructose, […] xylitol, […] sucrose, 5 M choline chloride diluted 1:1 or 1:100, dark or light, p>0.05
[12] = 1 nM TMAP in the citric acid solution, light
[13] = 1 nM TMAP in the diluted NADES 14, light

O=C(O)CC(O)C(=O)O (racemic) [Malic acid, DL-malic acid]
toxicity to E. coli ([1]; 2.1 M solution, 1:1 dilution and 1:100 dilution): highly toxic | toxicity / eradication of S. aureus [2]: toxic | toxicity to S. aureus ([2]; dilution 1:100): not toxic | photoinactivation of E. faecalis ([3]; dilution 1:1 and 1:100 with PBS, blue light): complete photoinactivation

C[N+](C)(C)CCO.[Cl-] [Choline chloride]
% survival (9.5 J/cm^2) [4]: 124 ± 7% | % survival (dark) [4]: 104 ± 12% | toxicity of NADES 26 components to E. coli [1]: non-toxic | toxicity of individual NADES component to E. faecalis [3]: not toxic | reduction in viable C. albicans [5]: No significant reduction

O=C(O)CC(O)(CC(=O)O)C(=O)O [Citric acid]
% survival (27 J/cm^2) ([6]; Dilution 1:400, blue light): 6 ± 2% | % survival (dark) ([6]; Dilution 1:400, no irradiation): 37 ± 9% | toxicity to P. aeruginosa [6]: not toxic at all | % survival (9.5 J/cm^2) [4, 9]: 0.1 ± 0.0% | % survival (dark) [4, 10]: 0.7 ± 0.3% | % survival (27 J/cm^2) [7]: 145 ± 2% | % survival (dark) [7]: 38 ± 18% | toxicity / eradication of E. coli ([1]; dilution 1:1, with and without blue light): very toxic | phototoxicity to E. coli ([1]; dilution 1:100 (up to 1:100) with PBS, blue light): killed all the bacteria present | toxicity / eradication of S. aureus [2]: complete eradication | toxicity to S. aureus ([2]; dilution 1:100): not toxic anymore | toxicity to E. faecalis ([3]; 2.7 M solution, dilution ratios 1:1 up to 1:100): toxic | toxicity to E. faecalis ([3]; dilution 1:200, total treatment 30 min): did not reduce the number of viable colony forming units | reduction in viable C. albicans after incubation in the dark ([5]; 2.7 M diluted 1:1): slight, though significant, reduction | reduction in viable C. albicans after light treatment ([5]; 2.7 M diluted 1:1, 27 J/cm^2 blue light): 73±8%

O=C(O)/C=C\C(=O)O [Maleic acid]
toxicity to E. coli ([1]; 3.1 M solution, even at dilution 1:400): highly toxic | toxicity to S. aureus ([2]; dilution 1:400): no longer toxic | eradication of S. aureus ([2]; dilution ratios 1:1 up to 1:200, total treatment 30 min): complete eradication | eradication of E. faecalis ([3]; dilutions 1:1 to 1:400 with PBS (maleic acid 3.1 M before dilution)): complete eradication

OC[C@H]1O[C@@](CO)(O[C@H]2O[C@H](CO)[C@@H](O)[C@H](O)[C@H]2O)[C@@H](O)[C@@H]1O [Sucrose]
% survival (27 J/cm^2) ([6]; Dilution 1:200, blue light): 98 ± 19% | % survival (dark) ([6]; Dilution 1:200, no irradiation): 204 ± 22% | % survival (9.5 J/cm^2) [4, 9]: 134 ± 14% | % survival (dark) [4, 10]: 113 ± 5% | % survival (27 J/cm^2) [7]: 84 ± 18% | % survival (dark) [7]: 124 ± 9% | reduction in viable C. albicans [5, 11]: No significant reduction

OC[C@@H](O)[C@H](O)[C@@H](O)CO [Xylitol]
% survival (27 J/cm^2) ([6]; Dilution 1:200, blue light): 143 ± 17% | % survival (dark) ([6]; Dilution 1:200, no irradiation): 140 ± 19% | toxicity to P. aeruginosa [6]: not toxic at all | % survival (9.5 J/cm^2) [4, 9]: 118 ± 12% | % survival (dark) [4, 10]: 98 ± 10% | % survival (27 J/cm^2) [7]: 74 ± 17% | % survival (dark) [7]: 72 ± 19% | toxicity of NADES 26 components to E. coli ([1]; choline chloride 5 M, xylitol […]): non-toxic | reduction in viable C. albicans [5, 11]: No significant reduction

O=C(CO)[C@@H](O)[C@H](O)[C@H](O)CO [fructose, D-(−)-fructose]
toxicity of individual NADES component to E. faecalis [3]: not toxic | reduction in viable C. albicans [5, 11]: No significant reduction

CO [methanol]
ENR [8]: 51.9 kcal/mol

O [water]
ENR [8]: 48.2 kcal/mol

tetra-(4-carboxyphenyl)-porphine [TCPP]
phototoxicity to E. coli ([1]; 1 nM TCPP): not phototoxic | phototoxicity to E. coli ([1]; 40 nM TCPP in pure PBS): not phototoxic | photoinactivation of E. coli ([1]; 0.6 μM TCPP in NADES 40): complete photoinactivation | surviving colony forming units per ml ([1]; 0.6 μM TCPP in citric acid solution, light): 20 000 colony forming units per ml | viable S. aureus after treatment ([2]; 1 nM TCPP in NADES 3, light): no viable bacteria detected | phototoxicity to S. aureus ([2]; 1 nM TCPP in pure PBS): killed half of the viable bacteria | photoinactivation of S. aureus ([2]; TCPP up to 1 μM in PBS): did not result in complete photoinactivation | photoinactivation of S. aureus ([2]; TCPP up to 1 μM in pH-neutral NADES 26): did not result in complete photoinactivation | eradication of E. faecalis after photodynamic treatment ([3]; 1 nM TCPP in acidic NADES 3): almost complete eradication | eradication of E. faecalis after photodynamic treatment ([3]; 1 nM TCPP in acidic NADES 14): almost complete eradication | eradication of E. faecalis after photodynamic treatment ([3]; 1 nM TCPP in acidic NADES 40): almost complete eradication | eradication of E. faecalis after photodynamic treatment ([3]; 1 nM TCPP in citric acid solution): almost complete eradication | phototoxicity to E. faecalis ([3]; 1 nM TCPP in pure PBS): not very phototoxic | eradication of E. faecalis after light treatment ([3]; 1 μM TCPP in neutral NADES 26): complete eradication | surviving colony forming units ([3]; 1 μM TCPP in pure PBS, light, E. faecalis): approximately 300 colony forming units

tetra-(4-trimethylanilinum)-porphine tetrachloride [TMAP]
phototoxicity to P. aeruginosa ([6]; 1 nM or 5 nM TMAP in PBS): not phototoxic | photoinactivation of S. epidermidis [4]: did not result in complete photoinactivation | viable E. coli after photodynamic treatment ([1]; 1 nM TMAP in NADES 35, dilution 1:800 with PBS): no viable | phototoxicity to E. coli ([1]; 1 nM TMAP in PBS, p>0.05): not enough to make this porphyrin significantly phototoxic | phototoxicity to E. coli ([1]; 1 nM TMAP in neutral NADES 26 (1:200), p>0.05): not enough to make this porphyrin significantly phototoxic | phototoxicity to E. coli ([1]; 1 nM TMAP in neutral NADES 39 (1:100), p>0.05): not enough to make this porphyrin significantly phototoxic | surviving colony forming units [1, 12]: 0.2% | surviving colony forming units per ml [1, 12]: 10 000 colony forming units per ml | surviving colony forming units [1, 13]: 0.2% | surviving colony forming units per ml [1, 13]: 10 000 colony forming units per ml | increase of phototoxicity compared to the citric acid solution ([3]; 1 nM TMAP in NADES 14 (final dilution 1:400), E. faecalis): 35 times | toxicity to C. albicans [5]: not toxic
